Here are results for 89 compounds from a melting point compilation (Tetko et al.; mined from patent text by program, amines drawn as free bases though some values may be those of a salt).

A word on the melting point: it is the temperature, or range, at which the solid turns liquid. On to `CC(=O)n1c(=O)oc2c(Cl)c(Cl)c(Cl)cc21`, for which the melting point lay in the range of 171 to 172 °C. In the case of `O=C(O)c1ccc2c(-c3ccccc3)c([N+](=O)[O-])oc2c1` it was 244 to 247 °C; in that of `C1=Cc2cc(C=C(c3ccc4c(c3)C=C4)c3ccc4c(c3)C=C4)ccc21`, 87 to 89 °C; in that of `CN(C(=O)c1ccc2nonc2c1)C1CCS(=O)(=O)CC1`, 238 to 239 °C. In the case of `O=C(NC1CCC2(CC1)CSC1=C(O2)c2ccccc2C(=O)C1=O)Oc1cccc(C(F)(F)F)c1` (centres undefined) it was 198 to 199 °C.

In turn, `CCOC(=O)c1ccc(NC(=O)C(c2ccc(Cl)cc2)c2ccc(Cl)cc2)cc1` yielded a melting point of 171 to 172 °C.

Consider `Nc1[nH]nc(-c2ccc(F)cc2)c1-c1ccncc1`, for which the melting point is over 250 °C. In the case of `COC(=O)c1ccc(COc2c(C)c(C)c3c(c2C)C(c2ccc(C(C)C)cc2)C(C)(C)O3)cc1` (centres undefined) it was 108 to 110 °C; in that of `O=P(O)(O)CCCCCCCCCCCC(F)(F)C(F)(F)C(F)(F)C(F)(F)C(F)(F)C(F)(F)C(F)(F)C(F)(F)F`, 115 to 117 °C.

In the case of `N#Cc1cc(C=O)cnc1Cl`, the melting point amounted to 96 °C. The compound `CC(C)OC(=O)Cn1c(=O)n(C)c(=O)n(-c2cc(N=c3sc(=S)n4n3CCCCC4)c(F)cc2Cl)c1=O` displayed a melting point of 108 to 118 °C. For the compound `COc1ccc(Br)cc1-c1nc(N)nc(N)n1`, the melting point was 294 to 297 °C.

Compound `O=C(O)CCCCN1C(=O)c2ccc([N+](=O)[O-])cc2C1=O` showed a melting point of 172 °C.

For `Nc1cc(N)cc(O)c1`, the melting point fell in the range of 168 to 170 °C. For `CCCCCCCCCCc1nc(N(C)C)nc(OC)c1O`, the melting point is 59 to 60 °C. In the case of `O=C(Nc1ccc(C(=O)O)cc1)OCc1cn(-c2cc3cc(C(=O)O)c(=O)[nH]c3cc2[N+](=O)[O-])cn1` it was over 300 °C. For the compound `Oc1ccc2c(c1)CCCC(c1ccccc1)=C2c1ccc(OCCI)cc1`, the melting point was in the range of 229 to 231 °C. In the case of `Cn1c(=O)c(C#N)c(Cl)c2cc(Cl)ccc21` it was 256 °C; in that of `COc1ccc2nc(C(F)(F)F)c(C(=O)O)c(O)c2c1`, 256 °C. Compound `CCCC(=O)NN(C(=O)C(=O)NN)C(=O)c1ccccc1` showed a melting point of 254 °C. For the compound `COc1ccccc1N1CCN(CCn2nc(-c3c(-c4ccccc4)nn4ccccc34)ccc2=O)CC1`, the melting point was 120 to 125 °C. In the case of `CCN(CC)CCCN1CCN(c2cc(-c3ccnc(NCc4cccc(OC)c4)n3)cc3ccc(OC)cc23)CC1` it was 156 to 160 °C. In the case of `Cn1c(C(F)(F)F)ccc(-c2c(F)cc(Cl)c3oc(CBr)cc23)c1=O` it was 142 to 144 °C.

The compound `COc1ccc(C(=O)OC2CC3C(=O)NC4(C(=O)NS(=O)(=O)C5CC5)CC4C=CCCCCCC(NC(=O)OC(C)(C)C)C(=O)N3C2)cc1` (centres undefined) registered a melting point of 151 to 153 °C.

`Cn1c(N)nc2cc(CN3CCN(C(c4ccccc4)c4ccccc4)CC3)ccc21` yielded a melting point of 268 °C. Regarding `CC(S)=C(C#N)C(=O)Nc1ccc(C(F)(F)F)cc1`, the melting point lay within 183 to 184 °C. The compound `Fc1ccc(-c2nc(S)nc(-c3ccccn3)n2)cc1` gave a melting point of over 270 °C.

As to `CCCN1CCCC2CC3=C(CCC(=O)N3)CC21` (centres undefined), the melting point was in the range of 183 to 184 °C. In the case of `CCOP(=O)(/C=C/c1cn(-c2ccccc2)nc1OCc1ccc(OCc2nc(-c3ccco3)oc2C)c(C(=O)OC)c1)OCC` it was 92 to 93 °C. Compound `CNCCOc1ccc(C(=O)NC)cc1` came in with a melting point of 95 to 96 °C.

In turn, `CCCN(C(=O)OC(C)(C)C)C(CC(C)C)C(=O)NCC(=O)Oc1c(Cl)c(Cl)c(Cl)c(Cl)c1Cl` (centres undefined) registered a melting point of 151 to 153 °C.

Compound `OC(CNc1ccccc1)c1cc(C(F)(F)F)nc2c(C(F)(F)F)cccc12` (centres undefined) came in with a melting point of 121 to 122 °C.

`Cn1cc(C(=O)O)c([N+](=O)[O-])n1` displayed a melting point of 185 to 187 °C. `Cc1ccc(N=Nc2ccc(-c3ccc(-c4ccc(N=Nc5ccc(C)cn5)cc4OC(C)C)o3)c(OC(C)C)c2)nc1` returned a melting point of 185 to 194 °C.

The compound `CC(C)CCN1C(=O)C(NC(=O)n2ccnc2)C(=O)N(c2ccccc2)c2ccccc21` (centres undefined) gave a melting point of 62 to 65 °C.

The compound `CCC(CC)n1cc(Br)nc(N2CCc3cc(OC)cc(C)c32)c1=O` returned a melting point of 152 to 154 °C. In the case of `O=C(CC1CCNCC1)Nc1cccc(-c2ccnc3c(C(=O)c4cccs4)cnn23)c1` it was 216 to 220 °C; in that of `O=C(O)c1cnc2n(c1=O)CCc1ccccc1-2`, 215 to 217 °C; in that of `CCn1c(C(F)(F)F)nn(-c2cc(N)c(C(N)=S)cc2F)c1=O`, 161 °C. In the case of `COc1cc(CNC(=S)NC(COC(=O)C(C)(C)C)Cc2ccc(C(C)(C)C)cc2)ccc1OCCN` (centres undefined), the melting point was 63 to 65 °C. In the case of `C=CCON(C1=NCCN1)c1c(F)cccc1Br` it was 141 °C; in that of `CCOC(=O)c1cc2c(F)cc(F)cc2[nH]1`, 153 to 154 °C. In the case of `CCN(CC)CCNC(=O)c1cc(Cl)c(N)cc1OCCOC` it was 108 to 110 °C. `CC(C)OC(=O)c1cc(N)n(C)n1` gave a melting point of 86 to 87 °C. Regarding `CCn1c2ccccc2c2cc(NC(=S)NNC(C)=O)ccc21`, the melting point was 197 to 199 °C.

`CCCc1c(OCCCS(=O)(=O)c2ccc(C(=O)CCC#N)cc2)ccc(C(C)=O)c1O` returned a melting point of 143 to 144 °C. `COc1cc(NC(=S)NCCN)cc(OC)c1` showed a melting point of 125 to 126 °C.

In turn, `COc1ccc(-c2ccc3ccc(OC)cc3c2)cc1` yielded a melting point of 154 °C. As to `CCCCCCCCCCCCCCC(=O)NC1CC(C)(C)N(CC#N)C(C)(C)C1`, the melting point was 101 °C. In the case of `OC(C1=NCCN1)(c1ccccc1)c1ccccn1` (centres undefined) it was 152 to 154 °C; in that of `O=C(O)c1c(Cl)ccc2cc(C(F)(F)F)cnc12`, 250 °C; in that of `O=C1NC(C(=O)N2CC(O)CC2C(=O)O)CSCCCCCCCC1CS` (centres undefined), 124 to 130 °C.

`Cc1ccc(S(=O)(=O)Nc2ccc(C#N)cc2C#N)cc1` displayed a melting point of 200 to 206 °C.

The compound `O=[N+]([O-])O[C@H]1COc2c(O)cccc2C1` registered a melting point of 129 to 130 °C. Compound `COc1sc(C)c(CO)c1C` showed a melting point of 55 to 60 °C. In turn, `O=[N+]([O-])c1ccc(OCCCO)cc1CS(=O)(=O)c1cccc2ccccc12` came in with a melting point of 134 to 135 °C. Consider `COc1cc(-c2nc(-n3cncn3)c3c(C)c(C#N)sc3n2)cc(OC)c1OC`, for which the melting point was 236 to 240 °C. `NS(=O)(=O)N(c1ccccc1)c1cccc(C(c2c(O)c3c(oc2=O)CCCCCC3)C2CC2)c1` (centres undefined) yielded a melting point of 90 to 95 °C. In the case of `O=C(NCC1CCN(CC2COc3ccccc3O2)CC1)c1ccccn1` (centres undefined) it was 95 to 97 °C; in that of `Cc1cn(C)cc1-c1cc2nccnc2[nH]1`, 210 °C; in that of `O=C(C=Cc1ccc(O)c([N+](=O)[O-])c1)NC1CCc2ccccc21` (centres undefined), 203 to 205 °C.

For `Cc1nn(C)c2nc(N)[nH]c(=O)c12`, the melting point was over 300 °C.

Consider `Nc1cc(OCc2ccccc2)ccc1NC(=O)c1ccc(OCc2ccccc2)c(C23CC4CC(CC(C4)C2)C3)c1`, for which the melting point lay in the range of 166 to 170 °C. `CCOC(=S)NCCN1CCC(Nc2nc3ccccc3n2Cc2ccc(F)cc2)CC1` displayed a melting point of 149 °C. Compound `COc1ccc(Cc2nc3c(cnn3C(CCCc3ccccc3)C(C)O)c(=O)[nH]2)cc1OC` (centres undefined) gave a melting point of 85 °C. `CC(Br)=C(c1ccccc1)c1ccccc1` came in with a melting point of 46 to 47 °C. In the case of `COc1ccc(NS(=O)(=O)c2ccccc2Br)cc1N(C)C1CCN(C)CC1` it was 119 to 121 °C; in that of `CC(/C=C/c1c(C)sc(C)c1C)=C(F)\C=C\C(C)=C\C=O`, 129 to 131 °C; in that of `FC(F)(F)CSc1nc2ccccc2[nH]1`, 148 to 150 °C. `COc1cccc(CN2C(=NCCCn3ccnc3)c3cccc4cccc2c34)c1` registered a melting point of 95 to 96 °C. Regarding `O=C(OCc1ccccc1)c1cc2cc(OCc3ccccc3)ccc2cc1OCc1ccccc1`, the melting point lay in the range of 99 to 102 °C. The compound `COC(=O)c1[nH]c(C)c(C)c1OCCCCl` returned a melting point of 117 to 120 °C.

Turning to `O=S(=O)(Cl)c1ccc(Cl)c(CCl)c1Cl`, the melting point was 68 °C. Regarding `CC(=O)N=C(OC(C)=O)N1CCSC1c1ccccc1OCCN1CCN(c2ccccc2)CC1` (centres undefined), the melting point lay in the range of 120 to 124 °C. In the case of `COc1ccc2c(c1)C(=O)c1cccc(OC(C)C)c1-2` it was 89 to 90 °C; in that of `Cc1cc(C)c(CN2CCN(C)CC2)c(C)c1C=O`, 90 °C. With `CCOC(=O)C=Cc1ccc(N)c(O)c1`, the melting point lay in the range of 134 to 135 °C. In the case of `O=C(O)COc1ccc2cc(CNC(=O)c3cc(-c4ccc(Cl)cc4)oc3C(F)(F)F)ccc2c1` it was 194 to 196 °C; in that of `CC(C)c1cccc(-c2ccc(F)cc2)c1OCCOc1ccc(C(=O)C(=O)O)cc1`, 123 to 125 °C; in that of `Fc1cc(-n2cc(CNC(=S)c3ccccn3)nn2)ccc1N1CCSCC1`, 158 to 160 °C.

`CC(C)C1(C)C(=O)NC2(O)c3ncccc3C(=O)N21` (centres undefined) had a melting point of 151 to 153 °C. In the case of `CCN1C(=O)CN(c2ccccc2)C1=O` it was 142 °C; in that of `CN(C)c1cc2nc(C(C)(C)C)sc2cc1[N+](=O)[O-]`, 65 to 68 °C. For `NS(=O)(=O)c1cc(C(=O)O)cc(C(F)(F)F)c1`, the melting point fell in the range of 244 to 246 °C. In the case of `O=Cc1cc(F)c(NC(=O)C(F)(F)F)c(F)c1` it was 122 to 125 °C; in that of `Cc1noc(NS(=O)(=O)c2ccccc2-c2cc3ccccc3n2S(=O)(=O)c2ccccc2)c1C`, 207 to 209 °C. In the case of `COC(=O)CCC(=NO)c1ccccc1` it was 76 to 77 °C; in that of `O[C@H](c1ccc(F)cc1)[C@H](Cc1ccc(C(F)(F)F)cc1)NCc1cccc2ccccc12` (racemic), 94 to 95 °C; in that of `O=c1ccc(C(F)(F)F)cn1Cc1ccccc1NCCCl`, 93.5 to 95 °C.
